Reference: US9091700B2, “Modified peptide substrate” (McMaster University, priority 2005, dated 2015)

Key:
Assay type in all cases: biochemical
[1] = test system: Total Thrombin (Free Thrombin+Thrombin-A2M); assay: Plasma thrombin generation, subsamples detected with free S2238 or S2238-Agarose; conditions: for Thrombin activity detected (absorbance at 405 nm), in words: plasma samples with free thrombin+thrombin-A2M, FIG. 5
Method: Plasma is taken and the fibrinogen removed by reaction with ancrod enzyme to form a fibrin clot that is wound out to give the resultant defibrinated plasma. At time zero, tissue factor (Thromborel S)+CaCl2 are added to start thrombin generation in the pre-warmed defibrinated plasma. At certain time points, subsamples from the reaction mixture are taken into Na2EDTA to stop further thrombin generation by chelating the Ca^2+. Thrombin activity in the time sample (containing both free thrombin and thrombin bound to alpha-2-macroglobulin (A2M)) was then detected by mixing with either free S2238 substrate in buffer or sterically hindered S2238 substrate (S2238-Agarose beads) suspended in buffer. In order to determine the ability of free S2238 or S2238-Agarose to detect thrombin-A2M, a similar experiment to the above method was carried out, except that all free thrombin was inhibited first by mixing with antithrombin+heparin prior to incubation with substrate. […] Thus, early time point samples (i.e. 60 seconds) would contain more free thrombin than thrombin-A2M, while later time point samples (i.e. 300 seconds) would contain much more thrombin-A2M than free thrombin.
12 mm (ID)×75 mm (L) polycarbonate plastic test tubes were used for plasma thrombin generation. • 1. Defibrination of Plasma: • a. 800 μL of Plasma was incubated with 10 μL of 30 U/mL Ancrod stock at 37° C. for 10 minutes. • b. After incubation, fibrin clot that formed was wound out on a plastic rod, leaving supernatant defibrinated plasma. • c. Test tube was placed on ice for 10 minutes. • d. After 10-minute incubation, any further clots were wound out. • e. Defibrinated plasma was stored on ice. • 2. The activator solution (12.5 μL Thromborel S+4.0 μL 1M CaCl2+183.5 μL HBS) was warmed at 37° C. in a tube. In a separate tube, 150 μL of defibrinated plasma was warmed at 37° C. • 3. At t=0, 150 μL of activator solution was mixed with 150 μL of defibrinated plasma, at 37° C. • 4. […] Aliquots of […] of supernatant from each sample were placed in 96-well plate wells and the absorbance at 405 nm measured.

[2] = target: T1, thrombin-A2M (Homo sapiens, UniProt P00734); assay: Reaction of soluble S2238 in 96-well plate, change in absorbance at 405 nm over 100 seconds; conditions: for ΔA: absorbance 405 nm over 100 seconds
T1 construct: 0.2 mg thrombin (Enzyme Research Laboratories, South Bend, 1N, USA)/mL HBS; purchased Enzyme Research Laboratories (thrombin); Sigma (A2M)
Method: (§1) A solution of 0.05M HEPES 0.15M NaCl pH 7.5 (HBS) was prepared. Thrombin-A2M was prepared by reaction of 40 μL of 5 mg A2M (Sigma)/mL+40 μL of 0.2 mg thrombin (Enzyme Research Laboratories, South Bend, 1N, USA)/mL HBS for 40 to 60 minutes at 23° C. (solution #1). Solutions of 40 μL of 5 mg A2M/mL+40 μL HBS (solution #2) and 40 μL of 0.2 mg thrombin/mL+40 μL HBS (solution #3) were prepared.
(§2) The following reactions with S2238 were carried out in 96-well plate wells. • 1. 5 μL of solution #1 were added to 10 uL of 0.5 mg antithrombin (purified antithrombin III protein, Affinity Biologicals, Ancaster, Ontario, Canada)/mL HBS+1 μL of 100 U heparin (Leo Laboratories, Ajax, Ontario, Canada)/mL HBS+74 μL HBS. After 10 minutes, 10 μL of 3.192 mg S2238/mL H2O was added with mixing, absorbance readings at 405 nm measured every 10 seconds for 100 seconds and the change in absorbance over that time recorded (AA). • 2. 5 μL of solution #2 were added to 10 uL of 0.5 mg antithrombin/mL HBS+1 μL of 100 U heparin/mL HBS+74 μL HBS. After 10 minutes, 10 μL of 3.192 mg S2238/mL H2O was added with mixing, absorbance readings at 405 nm measured every 10 seconds for 100 seconds and the change in absorbance over that time recorded (AA). • 3. 5 μL of solution #3 were added to 10 uL of 0.5 mg antithrombin/mL HBS+1 μL of 100 U heparin/mL HBS+74 μL HBS. After 10 minutes, 10 μL of 3.192 mg S2238/mL H2O was added with mixing, absorbance readings at 405 nm measured every 10 seconds for 100 seconds and the change in absorbance over that time recorded (AA). • 4. 5 μL of solution #1 were added to 85 uL of HBS. After 10 minutes, 10 μL of 3.192 mg S2238/mL H2O was added with mixing, absorbance readings at 405 nm measured every 10 seconds for 100 seconds and the change in absorbance over that time recorded (AA). • 5. 5 μL of solution #2 were added to 85 uL of HBS. After 10 minutes, 10 μL of 3.192 mg S2238/mL H2O was added with mixing, absorbance readings at 405 nm measured every 10 seconds for 100 seconds and the change in absorbance over that time recorded (AA). • 6. 5 μL of solution #3 were added to 85 uL of HBS. After 10 minutes, 10 μL of 3.192 mg S2238/mL H2O was added with mixing, absorbance readings at 405 nm measured every 10 seconds for 100 seconds and the change in absorbance over that time recorded (LA).

[3] = target: T2, thrombin (Homo sapiens, UniProt P00734); assay: as above; conditions: for ΔA: absorbance 405 nm over 100 seconds
T2 construct: 0.2 mg thrombin (Enzyme Research Laboratories, South Bend, 1N, USA)/mL HBS; purchased Enzyme Research Laboratories
Method: as §1, §2

[4] = target: T3, A2M (Homo sapiens, UniProt P01023); assay: as above; conditions: absorbance 405 nm over 100 seconds
T3 construct: purchased Sigma
T3 sequence (P01023 24-1474): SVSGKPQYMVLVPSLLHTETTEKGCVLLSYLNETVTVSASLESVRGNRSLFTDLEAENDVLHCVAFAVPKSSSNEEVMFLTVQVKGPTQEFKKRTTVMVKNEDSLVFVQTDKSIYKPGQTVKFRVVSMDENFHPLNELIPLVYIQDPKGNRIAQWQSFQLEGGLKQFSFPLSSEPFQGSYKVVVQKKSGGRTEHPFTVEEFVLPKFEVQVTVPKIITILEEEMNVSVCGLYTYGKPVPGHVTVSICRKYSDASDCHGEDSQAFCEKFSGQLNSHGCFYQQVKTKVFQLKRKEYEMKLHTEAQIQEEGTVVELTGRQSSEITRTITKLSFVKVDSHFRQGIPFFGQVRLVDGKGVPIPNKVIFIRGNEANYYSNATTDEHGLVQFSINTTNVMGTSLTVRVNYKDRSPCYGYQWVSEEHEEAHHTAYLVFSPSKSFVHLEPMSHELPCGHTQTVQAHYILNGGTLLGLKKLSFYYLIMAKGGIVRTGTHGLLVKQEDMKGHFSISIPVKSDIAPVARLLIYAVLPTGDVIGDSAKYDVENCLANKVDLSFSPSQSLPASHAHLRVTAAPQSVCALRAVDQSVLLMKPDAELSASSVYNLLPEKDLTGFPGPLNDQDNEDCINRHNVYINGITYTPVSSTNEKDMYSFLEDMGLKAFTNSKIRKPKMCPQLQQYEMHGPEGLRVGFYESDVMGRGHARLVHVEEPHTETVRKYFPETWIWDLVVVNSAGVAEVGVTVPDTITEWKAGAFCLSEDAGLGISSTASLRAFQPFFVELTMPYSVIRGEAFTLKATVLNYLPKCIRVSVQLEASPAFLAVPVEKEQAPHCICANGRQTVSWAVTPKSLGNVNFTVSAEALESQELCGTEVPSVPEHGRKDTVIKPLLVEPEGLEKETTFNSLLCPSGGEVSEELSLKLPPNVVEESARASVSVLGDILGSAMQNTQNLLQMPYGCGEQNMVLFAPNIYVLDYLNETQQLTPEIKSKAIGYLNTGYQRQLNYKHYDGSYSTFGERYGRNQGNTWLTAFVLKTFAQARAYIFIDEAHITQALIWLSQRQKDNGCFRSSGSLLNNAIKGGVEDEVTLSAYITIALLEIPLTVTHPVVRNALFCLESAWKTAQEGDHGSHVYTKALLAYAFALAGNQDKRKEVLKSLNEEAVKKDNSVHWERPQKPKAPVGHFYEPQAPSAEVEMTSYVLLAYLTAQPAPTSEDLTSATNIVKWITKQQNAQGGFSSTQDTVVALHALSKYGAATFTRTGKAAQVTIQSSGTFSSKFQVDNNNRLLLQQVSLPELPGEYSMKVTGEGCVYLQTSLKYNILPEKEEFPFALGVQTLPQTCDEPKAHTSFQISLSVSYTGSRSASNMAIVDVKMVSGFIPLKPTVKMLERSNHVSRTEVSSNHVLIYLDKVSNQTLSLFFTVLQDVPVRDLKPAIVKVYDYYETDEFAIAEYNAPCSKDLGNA
Method: as §1, §2

[5] = target: T1, thrombin-A2M; assay: Further comparison of reactivities (Example 3), change in absorbance; conditions: reactant thrombin-A2M
Method: (§3) Thrombin and thrombin-A2M were added to samples of S2238 and S2238-Agarose.

[6] = target: T2, thrombin; assay: as above; conditions: reactant Thrombin
Method: as §3

[7] = target: T1, thrombin-A2M; assay: Plasma thrombin generation, free thrombin neutralized by antithrombin+heparin before substrate; conditions: plasma samples with thrombin-A2M only (free thrombin neutralized by antithrombin+heparin); FIG. 5
Method: Plasma is taken and the fibrinogen removed by reaction with ancrod enzyme to form a fibrin clot that is wound out to give the resultant defibrinated plasma. At time zero, tissue factor (Thromborel S)+CaCl2 are added to start thrombin generation in the pre-warmed defibrinated plasma. At certain time points, subsamples from the reaction mixture are taken into Na2EDTA to stop further thrombin generation by chelating the Ca^2+. Thrombin activity in the time sample (containing both free thrombin and thrombin bound to alpha-2-macroglobulin (A2M)) was then detected by mixing with either free S2238 substrate in buffer or sterically hindered S2238 substrate (S2238-Agarose beads) suspended in buffer. […]
12 mm (ID)×75 mm (L) polycarbonate plastic test tubes were used for plasma thrombin generation. • 1. […] Aliquots of 2004 of supernatant from each sample were placed in 96-well plate wells and the absorbance at 405 nm measured.
The experiment described above was repeated, except that at step 4, 25 μL of time sample was added to 5 μL of 50 U antithrombin/mL PBS (7.2 mg antithrombin/mL)+2 μl of 100 U heparin/mL 0.15M NaCl on ice. […] Absorbance detected at 405 nm was essentially due to substrate reaction with thrombin-A2M alone (free thrombin having been neutralized by antithrombin+heparin).

[8] = target: T4, human alpha thrombin (Homo sapiens, UniProt P00734); assay: Reaction of thrombin with S2238 SEPHAROSE beads or free S2238, absorbance at 405 nm of supernatant; conditions: + thrombin + TSP buffer; 100 nM thrombin, 23° C.
T4 construct: 100 nM human alpha thrombin (Enzyme Research Laboratories); purchased Enzyme Research Laboratories
Method: 0.5 mL of resuspended S2238 SEPHAROSE™ beads was placed in each of 2 microfuge tubes (1.5 mL capacity), followed by centrifugation at 12000 g for 1 minute and removal of the resultant supernatant. Beads in each tube were resuspended in 0.5 mL of 0.02 M Tris-HCl 0.15 M NaCl 0.6% polyethylene glycol 8000 pH 7.4 (TSP), centrifuged for 1 minute and the resultant supernatant discarded. A solution of 100 nM human alpha thrombin (Enzyme Research Laboratories) in TSP was prepared. 0.5 mL of thrombin was added to one tube of packed S2238 SEPHAROSE™ beads (tube 1) and 0.5 mL of TSP was added to the other tube of S2238-SEPHAROSE™ beads (tube 2). In a separate empty tube, 0.05 mL of free (not conjugated to beads) S2238 stock solution (12.5 mg of S2238/mL of H2O)+0.15 mL of TSP+0.5 mL of 100 nM thrombin were added (tube 3). Finally, in a separate empty tube, 0.05 mL of free S2238 stock solution+0.65 mL of TSP were added (tube 4). All of the tubes were capped and tubes+contents were gently shaken by inversion manually for 10 min at 23° C. Following inversion mixing, tubes were centrifuged at 12000 g for 1 min and 0.2 mL of supernatant fluid from each tube quickly removed to separate wells of a 96-well microtitre plate and the absorbance at 405 nm measured.

H-D-Phe-Pip-Arg-pNA [S2238]
Which thrombin species accounts for the detected activity (comparison of samples) ([1]; comparison of free thrombin+thrombin-A2M samples with thrombin-A2M only samples, 60 sec or 300 sec): the vast majority of soluble S2238 activity is due to thrombin-A2M
Thrombin activity detected (absorbance at 405 nm), in words ([1]; 60 seconds after plasma activation): significant activity
Thrombin activity detected (absorbance at 405 nm), in words ([1]; 300 seconds after plasma activation): significant thrombin substrate activity
ΔA ([2]; Thrombin-A2M added): 0.8
Reaction with thrombin-A2M (in words) ([2]; summary of Table 1): reacts readily
ΔA ([2]; thrombin-A2M + antithrombin + heparin added): 0.8
ΔA ([3]; Thrombin added): 0.95
Reaction with free thrombin (in words) ([3]; summary of Table 1): reacts readily
ΔA ([3]; thrombin + antithrombin + heparin added): 0
ΔA ([4]; A2M + antithrombin + heparin added): 0
ΔA ([4]; A2M added): 0
Thrombin Activity (Δ absorbance/minute) [5]: 0.48 Δ absorbance/minute
Thrombin Activity (Δ absorbance/minute) [6]: 0.57 Δ absorbance/minute
Thrombin activity detected (absorbance at 405 nm), in words [7]: significant thrombin activity
Absorbance at 405 nm of supernatant after 10 minutes incubation and 1 minute centrifugation [8]: 1.143
